These results are taken from ChEMBL document CHEMBL4828725 (Eur J Med Chem, 2021).

Molecules are shown by their SMILES.

In general, IC50 refers to the concentration that inhibits the measured activity by half. Usually inhibition stands for the relative decrease from the control value, in per cent.

A short description of assay [1]: Inhibition of bovine liver beta-glucosidase using p-nitrophenyl glycoside as substrate assessed as release of p-nitrophenol measured by spectrometric assay. Further details: species or system Bos taurus; call rule not given here.
A short description of assay [2]: Inhibition of jack bean alpha-mannosidase using p-nitrophenyl glycoside as substrate assessed as release of p-nitrophenol measured by spectrometric assay. Further details: species or system Canavalia ensiformis.
Assay [3] is described as follows: Inhibition of snail beta-mannosidase using p-nitrophenyl glycoside as substrate assessed as release of p-nitrophenol measured by spectrometric assay. Also noted: species or system Helix pomatia.
Assay [4] can be described thus: Inhibition of Aspergillus niger amyloglucosidase using p-nitrophenyl glycoside as substrate assessed as release of p-nitrophenol measured by spectrometric assay.
The next assay has as its system Penicillium decumbens. Put plainly: Inhibition of Penicillium decumbens alpha-L-rhamnosidase using p-nitrophenyl glycoside as substrate assessed as release of p-nitrophenol at 1000 uM measured by spectrometric assay relative to control.
Assay [5] has as its target T1, Sucrase-isomaltase, intestinal (Rattus norvegicus, UniProt P23739). Put plainly: Inhibition of rat intestinal isomaltase using p-nitrophenyl glycoside as substrate assessed as release of p-nitrophenol measured by spectrometric assay. The following applies: read-out: IC50.
In assay [6] the target is T2, Tissue alpha-L-fucosidase (Bos taurus, UniProt Q2KIM0).
T2 sequence (Q2KIM0 whole entry): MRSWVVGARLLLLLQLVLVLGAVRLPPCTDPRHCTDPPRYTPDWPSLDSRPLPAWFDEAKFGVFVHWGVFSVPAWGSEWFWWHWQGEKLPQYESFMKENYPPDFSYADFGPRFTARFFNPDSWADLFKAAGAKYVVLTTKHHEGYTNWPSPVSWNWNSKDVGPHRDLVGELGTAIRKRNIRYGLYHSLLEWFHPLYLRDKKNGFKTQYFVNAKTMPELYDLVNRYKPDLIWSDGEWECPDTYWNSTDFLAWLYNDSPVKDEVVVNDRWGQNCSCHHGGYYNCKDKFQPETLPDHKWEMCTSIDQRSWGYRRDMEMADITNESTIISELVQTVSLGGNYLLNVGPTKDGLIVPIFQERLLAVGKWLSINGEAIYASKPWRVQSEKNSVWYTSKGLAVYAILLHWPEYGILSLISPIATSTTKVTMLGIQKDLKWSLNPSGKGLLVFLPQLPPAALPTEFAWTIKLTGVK
Put plainly: Inhibition of bovine kidney alpha-L-fucosidase using p-nitrophenyl glycoside as substrate assessed as release of p-nitrophenol measured by spectrometric assay.

A further assay has as its system Aspergillus niger. The assay can be described thus: Inhibition of Aspergillus niger amyloglucosidase using p-nitrophenyl glycoside as substrate assessed as release of p-nitrophenol at 1000 uM measured by spectrometric assay relative to control.
The target of assay [7] is T3, Alpha-mannosidase (Canavalia ensiformis) (UniProt C0HJB3).
T3 sequence (whole entry): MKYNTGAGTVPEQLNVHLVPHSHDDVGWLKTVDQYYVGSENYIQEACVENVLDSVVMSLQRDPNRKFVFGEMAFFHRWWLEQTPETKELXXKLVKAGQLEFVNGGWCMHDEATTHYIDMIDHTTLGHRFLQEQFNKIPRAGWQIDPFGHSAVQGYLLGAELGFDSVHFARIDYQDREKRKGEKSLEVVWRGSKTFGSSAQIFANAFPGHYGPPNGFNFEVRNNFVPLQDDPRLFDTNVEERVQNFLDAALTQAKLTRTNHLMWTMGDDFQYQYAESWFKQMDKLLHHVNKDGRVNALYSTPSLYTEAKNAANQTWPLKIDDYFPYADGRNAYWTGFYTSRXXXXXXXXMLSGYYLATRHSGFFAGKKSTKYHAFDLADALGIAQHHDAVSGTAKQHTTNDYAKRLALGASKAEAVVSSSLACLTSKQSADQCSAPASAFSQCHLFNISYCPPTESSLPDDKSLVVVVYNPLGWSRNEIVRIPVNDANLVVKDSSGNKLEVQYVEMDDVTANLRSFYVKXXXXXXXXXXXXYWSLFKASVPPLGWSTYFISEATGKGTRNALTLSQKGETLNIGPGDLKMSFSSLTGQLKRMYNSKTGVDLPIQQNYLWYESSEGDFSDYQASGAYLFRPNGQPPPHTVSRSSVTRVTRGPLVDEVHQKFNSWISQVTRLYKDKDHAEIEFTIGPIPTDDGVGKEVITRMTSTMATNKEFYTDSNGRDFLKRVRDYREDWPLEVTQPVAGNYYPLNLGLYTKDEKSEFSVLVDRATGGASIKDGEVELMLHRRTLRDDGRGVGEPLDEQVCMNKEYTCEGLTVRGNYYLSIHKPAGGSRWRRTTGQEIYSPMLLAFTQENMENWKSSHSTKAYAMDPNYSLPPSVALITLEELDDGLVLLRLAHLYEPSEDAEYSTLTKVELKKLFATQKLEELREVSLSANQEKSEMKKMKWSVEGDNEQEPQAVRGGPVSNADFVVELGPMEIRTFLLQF
The assay can be described thus: Inhibition of jack bean alpha-mannosidase using p-nitrophenyl glycoside as substrate assessed as release of p-nitrophenol at 1000 uM measured by spectrometric assay relative to control.

A short description of assay [8]: Inhibition of rice alpha-glucosidase using p-nitrophenyl glycoside as substrate assessed as release of p-nitrophenol measured by spectrometric assay. Further details: species or system Oryza sativa.
The nature of assay [9]: Inhibition of bovine liver beta-galactosidase using p-nitrophenyl glycoside as substrate assessed as release of p-nitrophenol measured by spectrometric assay. It is filed as tissue-based, Bos taurus.
The target in another assay is Beta-glucuronidase (Escherichia coli (strain K12), UniProt P05804). Put plainly: Inhibition of Escherichia coli beta-glucuronidase using p-nitrophenyl glycoside as substrate assessed as release of p-nitrophenol measured by spectrometric assay.
Assay [10] in a line: Inhibition of almond beta-glucosidase using p-nitrophenyl glycoside as substrate assessed as release of p-nitrophenol measured by spectrometric assay. Further details: species or system Prunus dulcis.
In another assay the target is Alpha-galactosidase (Coffea arabica, UniProt Q42656). The assay can be described thus: Inhibition of coffee beans alpha-galactosidase using p-nitrophenyl glycoside as substrate assessed as release of p-nitrophenol measured by spectrometric assay.
Assay [11] is described as follows: Inhibition of Penicillium decumbens alpha-L-rhamnosidase using p-nitrophenyl glycoside as substrate assessed as release of p-nitrophenol measured by spectrometric assay.
In assay [12] the target is T1, Sucrase-isomaltase, intestinal. The assay can be described thus: Inhibition of rat intestinal sucrase using p-nitrophenyl glycoside as substrate assessed as release of p-nitrophenol measured by spectrometric assay. The following applies: read-out: IC50.
A short description of assay [13]: Inhibition of rat intestinal maltase using maltose as substrate assessed as release of D-glucose measured by spectrometric assay.
The next assay concerns Prunus dulcis. Put plainly: Inhibition of almond beta-glucosidase using p-nitrophenyl glycoside as substrate assessed as release of p-nitrophenol at 1000 uM measured by spectrometric assay relative to control.
A short description of assay [14]: Inhibition of porcine kidney alpha-trehalase using p-nitrophenyl glycoside as substrate assessed as release of p-nitrophenol measured by spectrometric assay. Further details: species or system Sus scrofa.
A further assay concerns Helix pomatia. The assay can be described thus: Inhibition of snail beta-mannosidase using p-nitrophenyl glycoside as substrate assessed as release of p-nitrophenol at 1000 uM measured by spectrometric assay relative to control.
For assay [15], the target named is T4, Tissue alpha-L-fucosidase (Bos taurus) (UniProt Q2KIM0).
T4 sequence (whole entry): T2 sequence (Q2KIM0 whole entry)
Put plainly: Inhibition of bovine kidney alpha-L-fucosidase using p-nitrophenyl glycoside as substrate assessed as release of p-nitrophenol at 1000 uM measured by spectrometric assay relative to control. It is filed as tissue-based.

The species entered for another assay is Sus scrofa. The assay can be described thus: Inhibition of porcine kidney alpha-trehalase using p-nitrophenyl glycoside as substrate assessed as release of p-nitrophenol at 1000 uM measured by spectrometric assay relative to control.
The target in assay [16] is Beta-glucuronidase (Escherichia coli (strain K12)) (UniProt P05804). Put plainly: Inhibition of Escherichia coli beta-glucuronidase using p-nitrophenyl glycoside as substrate assessed as release of p-nitrophenol at 1000 uM measured by spectrometric assay relative to control.
Sequence of Beta-glucuronidase (Escherichia coli (strain K12)) (P05804 whole entry, looked up): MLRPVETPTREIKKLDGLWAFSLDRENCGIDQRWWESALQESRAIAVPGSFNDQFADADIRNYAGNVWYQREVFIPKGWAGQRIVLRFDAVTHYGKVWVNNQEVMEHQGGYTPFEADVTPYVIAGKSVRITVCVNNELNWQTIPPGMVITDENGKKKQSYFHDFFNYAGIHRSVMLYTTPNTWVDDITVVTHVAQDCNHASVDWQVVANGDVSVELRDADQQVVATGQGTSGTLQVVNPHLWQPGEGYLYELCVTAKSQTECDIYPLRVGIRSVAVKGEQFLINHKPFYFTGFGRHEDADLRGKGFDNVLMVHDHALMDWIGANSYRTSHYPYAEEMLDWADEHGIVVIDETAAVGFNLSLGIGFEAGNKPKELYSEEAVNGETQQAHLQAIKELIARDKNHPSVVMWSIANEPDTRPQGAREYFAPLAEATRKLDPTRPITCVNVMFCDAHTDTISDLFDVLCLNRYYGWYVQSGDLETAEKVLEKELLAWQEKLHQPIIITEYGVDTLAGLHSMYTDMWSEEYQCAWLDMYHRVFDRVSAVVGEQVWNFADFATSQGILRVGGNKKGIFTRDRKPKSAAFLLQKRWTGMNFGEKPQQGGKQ

Sequence of Beta-glucuronidase (P05804 whole entry): as the sequence (P05804 whole entry, looked up) above
T1 sequence (P23739 1-1013 limits assumed): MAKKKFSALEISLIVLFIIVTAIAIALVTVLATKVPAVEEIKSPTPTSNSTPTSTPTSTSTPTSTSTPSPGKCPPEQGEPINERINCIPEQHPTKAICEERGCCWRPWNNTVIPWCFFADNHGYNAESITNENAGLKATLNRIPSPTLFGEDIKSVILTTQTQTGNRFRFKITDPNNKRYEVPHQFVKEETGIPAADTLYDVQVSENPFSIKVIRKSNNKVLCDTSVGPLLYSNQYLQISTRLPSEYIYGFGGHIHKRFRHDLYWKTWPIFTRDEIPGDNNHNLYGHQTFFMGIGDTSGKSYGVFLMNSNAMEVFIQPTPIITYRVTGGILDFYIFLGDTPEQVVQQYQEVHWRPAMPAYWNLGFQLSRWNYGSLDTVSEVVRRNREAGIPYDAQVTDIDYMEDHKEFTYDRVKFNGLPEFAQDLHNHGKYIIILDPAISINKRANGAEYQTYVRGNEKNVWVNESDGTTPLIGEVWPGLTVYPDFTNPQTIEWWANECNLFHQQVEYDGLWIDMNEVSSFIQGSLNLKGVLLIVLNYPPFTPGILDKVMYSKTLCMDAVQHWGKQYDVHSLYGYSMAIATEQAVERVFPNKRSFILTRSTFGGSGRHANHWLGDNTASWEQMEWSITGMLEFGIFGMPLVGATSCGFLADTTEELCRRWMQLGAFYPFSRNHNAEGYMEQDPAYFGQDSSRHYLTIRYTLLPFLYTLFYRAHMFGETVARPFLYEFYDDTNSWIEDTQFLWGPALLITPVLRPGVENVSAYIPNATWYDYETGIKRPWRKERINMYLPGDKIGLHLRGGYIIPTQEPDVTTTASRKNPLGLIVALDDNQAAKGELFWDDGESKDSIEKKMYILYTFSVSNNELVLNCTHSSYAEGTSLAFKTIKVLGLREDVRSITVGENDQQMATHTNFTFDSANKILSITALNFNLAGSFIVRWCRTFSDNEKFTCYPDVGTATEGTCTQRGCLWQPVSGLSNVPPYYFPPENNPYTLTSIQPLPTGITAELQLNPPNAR
T1 sequence (P23739 1014-1841 limits assumed): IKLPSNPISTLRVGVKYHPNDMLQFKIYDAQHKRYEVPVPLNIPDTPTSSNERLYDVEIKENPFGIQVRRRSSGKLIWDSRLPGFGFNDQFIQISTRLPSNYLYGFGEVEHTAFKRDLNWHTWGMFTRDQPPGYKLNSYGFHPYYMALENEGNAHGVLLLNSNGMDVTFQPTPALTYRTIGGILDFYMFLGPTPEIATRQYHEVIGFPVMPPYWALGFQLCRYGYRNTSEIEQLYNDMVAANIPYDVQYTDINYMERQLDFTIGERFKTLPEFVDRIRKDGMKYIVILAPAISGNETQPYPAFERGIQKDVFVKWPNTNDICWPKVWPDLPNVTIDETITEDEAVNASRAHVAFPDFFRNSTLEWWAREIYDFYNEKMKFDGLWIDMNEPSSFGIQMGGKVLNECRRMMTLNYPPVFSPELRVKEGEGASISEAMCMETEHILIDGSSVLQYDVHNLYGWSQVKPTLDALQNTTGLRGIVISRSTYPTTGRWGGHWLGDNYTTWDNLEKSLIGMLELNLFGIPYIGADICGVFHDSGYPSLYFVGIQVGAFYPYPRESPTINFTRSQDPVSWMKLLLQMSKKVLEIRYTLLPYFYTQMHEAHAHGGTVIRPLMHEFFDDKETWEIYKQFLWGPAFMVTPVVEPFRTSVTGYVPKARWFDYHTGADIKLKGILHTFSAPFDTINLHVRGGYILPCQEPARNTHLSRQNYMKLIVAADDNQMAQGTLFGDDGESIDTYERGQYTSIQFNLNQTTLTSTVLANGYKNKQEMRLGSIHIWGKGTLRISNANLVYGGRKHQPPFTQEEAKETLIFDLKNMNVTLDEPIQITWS
Sequence of Alpha-galactosidase (Q42656 whole entry): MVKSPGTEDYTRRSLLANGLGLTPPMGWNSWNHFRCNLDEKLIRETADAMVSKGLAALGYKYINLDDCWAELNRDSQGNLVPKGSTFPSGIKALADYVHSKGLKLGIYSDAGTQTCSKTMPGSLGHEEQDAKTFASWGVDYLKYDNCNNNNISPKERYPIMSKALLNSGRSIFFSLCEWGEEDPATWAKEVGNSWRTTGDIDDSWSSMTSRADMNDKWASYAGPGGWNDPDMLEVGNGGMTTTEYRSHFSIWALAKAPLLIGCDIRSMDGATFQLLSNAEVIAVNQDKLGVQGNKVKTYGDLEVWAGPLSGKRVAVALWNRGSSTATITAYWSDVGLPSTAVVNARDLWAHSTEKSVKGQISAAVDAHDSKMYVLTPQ

On to `CCCCCCCCC[C@]1(CO)NC[C@H](O)[C@@H](O)[C@@H]1O.Cl`, for which the IC50 is 211 µM in [1] (read-out: IC50); “Not Active” in assay [2]; “Not Active” in assay [3]; “Not Active” in assay [4]; 1.7 µM in assay [5]; “Not Active” in assay [6]. The IC50 was 0.028 µM in [8] (read-out: IC50); 68 µM in assay [9] (read-out: IC50); 158 µM at Beta-glucuronidase (read-out: IC50); “Not Active” in assay [10]; 15 µM at Alpha-galactosidase (read-out: IC50); “Not Active” in assay [11]. The figures for the IC50 in [12], in assay [13] and in [14] (read-out: IC50) were 0.45 µM, 0.12 µM and 494 µM, respectively. In addition, the inhibition with Penicillium decumbens was determined as 9.1%; with Aspergillus niger it was 14.1%; in assay [7], 10.7%; in the assay with Prunus dulcis, 41.7%; with Helix pomatia, 2.5%; in assay [15], 25.3%.

For the compound `CCCC[C@]1(CO)NC[C@H](O)[C@@H](O)[C@@H]1O.Cl`, the inhibition in the assay listed under Sus scrofa turned out to be 33.5%; in the assay on Penicillium decumbens it was 16.3%; in the assay with Aspergillus niger, 17.1%; in assay [7], 6.6%; in the assay with Prunus dulcis it was 36.6%; with Helix pomatia, 16.5%. Further, the inhibition in [15] worked out at 10.3%. Further, the IC50 is 315 µM in [1] (read-out: IC50); “Not Active” in [2]; “Not Active” in assay [3]; “Not Active” in assay [4]; 2.6 µM in assay [5]; “Not Active” in assay [6]. Also, the IC50 was 0.14 µM in assay [8] (read-out: IC50); 127 µM in assay [9] (read-out: IC50); 679 µM at Beta-glucuronidase (read-out: IC50); “Not Active” in assay [10]; 58 µM on Alpha-galactosidase (read-out: IC50); “Not Active” in assay [11]. Moreover, the values for the IC50 in assay [12], in assay [13] and in assay [14] were 0.56 µM, 0.17 µM and “Not Active”, respectively.

In the case of `CCCCCCCCCC[C@]1(CO)NC[C@H](O)[C@@H](O)[C@@H]1O.Cl`, the inhibition in the assay listed under Sus scrofa was found to be 5.7%; in [16], 24.4%; with Penicillium decumbens it was 0%; in the assay on Aspergillus niger, 9.2%; in assay [7] it was 4.3%; with Prunus dulcis, 10%. The inhibition in the assay with Helix pomatia turned out to be 0%; in [15], 0.9%. Further, the IC50 in assay [1] (read-out: IC50) is 21 µM; in assay [2], “Not Active”; in [3], “Not Active”; in assay [4], “Not Active”; in assay [5] it was 13 µM; in assay [6], “Not Active”. Moreover, the IC50 in assay [8] (read-out: IC50) is 0.033 µM; on Beta-glucuronidase it was “Not Active”; in [10], “Not Active”; on Alpha-galactosidase (read-out: IC50), 18 µM; in assay [11], “Not Active”; in [12], 1.7 µM. The concentration for half-maximal inhibition (IC50) in assay [13] was 0.12 µM; in [14] it was “Not Active”.

Consider `OC[C@@H]1NC[C@H](O)[C@@H](O)[C@@H]1O`, for which the IC50 result in [1], in assay [2], in assay [3], in assay [4], in [6] and in assay [8] was “Not Active” throughout. In addition, the IC50 entry in assay [9] was “Not Active”; on Beta-glucuronidase, “Not Active”; in assay [10], “Not Active”; on Alpha-galactosidase, “Not Active”; in [11], “Not Active”; in assay [13] it was 8.4 µM. In assay [14], the IC50 entry is “Not Active”.
